Experimental data from the NIST ThermoML archive (doi:10.1016/j.jct.2016.01.021).

Experiment: xn = mol fraction of the nth substance listed
Details: 100 kPa, Liquid; for viscosity: Capillary tube (Ostwald / Ubbelohde) method; for mass density: Vibrating tube method

CCCCCCCCCC(=O)OCC [ethyl decanoate] + CCCCCCCCCCCCCCCC
Details | mass density [kg/m3] | viscosity [mPa·s]
298.15 K, x2 = 0 | 860.05 | 2.115
298.15 K, x2 = 0.1 | 848.4 | 2.169
298.15 K, x2 = 0.2 | 837.44 | 2.23
298.15 K, x2 = 0.3 | 827.17 | 2.298
298.15 K, x2 = 0.4 | 817.5 | 2.374
298.15 K, x2 = 0.5 | 808.41 | 2.46
298.15 K, x2 = 0.6 | 799.81 | 2.556
298.15 K, x2 = 0.7 | 791.69 | 2.664
298.15 K, x2 = 0.8 | 783.98 | 2.785
298.15 K, x2 = 0.9 | 776.78 | 2.923
303.15 K, x2 = 0 | 855.99 | 1.919
303.15 K, x2 = 0.1 | 844.41 | 1.966
303.15 K, x2 = 0.2 | 833.53 | 2.019
303.15 K, x2 = 0.3 | 823.32 | 2.079
303.15 K, x2 = 0.4 | 813.71 | 2.144
303.15 K, x2 = 0.5 | 804.69 | 2.219
303.15 K, x2 = 0.6 | 796.15 | 2.303
303.15 K, x2 = 0.7 | 788.08 | 2.396
303.15 K, x2 = 0.8 | 780.42 | 2.501
303.15 K, x2 = 0.9 | 773.27 | 2.618
308.15 K, x2 = 0 | 851.92 | 1.75
308.15 K, x2 = 0.1 | 840.42 | 1.79
308.15 K, x2 = 0.2 | 829.61 | 1.837
308.15 K, x2 = 0.3 | 819.48 | 1.89
308.15 K, x2 = 0.4 | 809.93 | 1.948
308.15 K, x2 = 0.5 | 800.96 | 2.013
308.15 K, x2 = 0.6 | 792.49 | 2.086
308.15 K, x2 = 0.7 | 784.47 | 2.167
308.15 K, x2 = 0.8 | 776.87 | 2.257
308.15 K, x2 = 0.9 | 769.76 | 2.358
313.15 K, x2 = 0 | 847.85 | 1.603
313.15 K, x2 = 0.1 | 836.43 | 1.639
313.15 K, x2 = 0.2 | 825.69 | 1.68
313.15 K, x2 = 0.3 | 815.62 | 1.726
313.15 K, x2 = 0.4 | 806.15 | 1.777
313.15 K, x2 = 0.5 | 797.24 | 1.835
313.15 K, x2 = 0.6 | 788.82 | 1.899
313.15 K, x2 = 0.7 | 780.86 | 1.97
313.15 K, x2 = 0.8 | 773.31 | 2.049
313.15 K, x2 = 0.9 | 766.26 | 2.137
318.15 K, x2 = 0 | 843.77 | 1.474
318.15 K, x2 = 0.1 | 832.43 | 1.506
318.15 K, x2 = 0.2 | 821.76 | 1.544
318.15 K, x2 = 0.3 | 811.77 | 1.585
318.15 K, x2 = 0.4 | 802.35 | 1.63
318.15 K, x2 = 0.5 | 793.51 | 1.68
318.15 K, x2 = 0.6 | 785.15 | 1.737
318.15 K, x2 = 0.7 | 777.25 | 1.799
318.15 K, x2 = 0.8 | 769.76 | 1.869
318.15 K, x2 = 0.9 | 762.74 | 1.947
323.15 K, x2 = 0 | 839.69 | 1.362
323.15 K, x2 = 0.1 | 828.42 | 1.39
323.15 K, x2 = 0.2 | 817.83 | 1.423
323.15 K, x2 = 0.3 | 807.9 | 1.46
323.15 K, x2 = 0.4 | 798.56 | 1.501
323.15 K, x2 = 0.5 | 789.78 | 1.546
323.15 K, x2 = 0.6 | 781.48 | 1.595
323.15 K, x2 = 0.7 | 773.64 | 1.651
323.15 K, x2 = 0.8 | 766.2 | 1.712
323.15 K, x2 = 0.9 | 759.24 | 1.779

CCCCCCCCCCCC(=O)OCC [ethyl dodecanoate] + CCCCCCCCCCCCCCCC
Details | mass density [kg/m3] | viscosity [mPa·s]
298.15 K, x2 = 0 | 858.19 | 3.015
298.15 K, x2 = 0.1 | 848.2 | 2.977
298.15 K, x2 = 0.2 | 838.49 | 2.954
298.15 K, x2 = 0.3 | 829.03 | 2.935
298.15 K, x2 = 0.4 | 819.83 | 2.925
298.15 K, x2 = 0.5 | 810.88 | 2.923
298.15 K, x2 = 0.6 | 802.18 | 2.933
298.15 K, x2 = 0.7 | 793.76 | 2.952
298.15 K, x2 = 0.7999 | 785.59 | 2.98
298.15 K, x2 = 0.9 | 777.65 | 3.024
303.15 K, x2 = 0 | 854.3 | 2.704
303.15 K, x2 = 0.1 | 844.34 | 2.673
303.15 K, x2 = 0.2 | 834.69 | 2.65
303.15 K, x2 = 0.3 | 825.27 | 2.632
303.15 K, x2 = 0.4 | 816.11 | 2.624
303.15 K, x2 = 0.5 | 807.21 | 2.623
303.15 K, x2 = 0.6 | 798.55 | 2.629
303.15 K, x2 = 0.7 | 790.18 | 2.645
303.15 K, x2 = 0.7999 | 782.04 | 2.668
303.15 K, x2 = 0.9 | 774.14 | 2.706
308.15 K, x2 = 0 | 850.4 | 2.439
308.15 K, x2 = 0.1 | 840.49 | 2.412
308.15 K, x2 = 0.2 | 830.88 | 2.392
308.15 K, x2 = 0.3 | 821.51 | 2.377
308.15 K, x2 = 0.4 | 812.4 | 2.368
308.15 K, x2 = 0.5 | 803.54 | 2.367
308.15 K, x2 = 0.6 | 794.93 | 2.372
308.15 K, x2 = 0.7 | 786.59 | 2.384
308.15 K, x2 = 0.7999 | 778.5 | 2.403
308.15 K, x2 = 0.9 | 770.64 | 2.433
313.15 K, x2 = 0 | 846.5 | 2.213
313.15 K, x2 = 0.1 | 836.63 | 2.188
313.15 K, x2 = 0.2 | 827.07 | 2.169
313.15 K, x2 = 0.3 | 817.75 | 2.155
313.15 K, x2 = 0.4 | 808.68 | 2.149
313.15 K, x2 = 0.5 | 799.87 | 2.146
313.15 K, x2 = 0.6 | 791.3 | 2.15
313.15 K, x2 = 0.7 | 783.01 | 2.16
313.15 K, x2 = 0.7999 | 774.96 | 2.179
313.15 K, x2 = 0.9 | 767.14 | 2.203
318.15 K, x2 = 0 | 842.6 | 2.016
318.15 K, x2 = 0.1 | 832.77 | 1.996
318.15 K, x2 = 0.2 | 823.26 | 1.978
318.15 K, x2 = 0.3 | 813.99 | 1.966
318.15 K, x2 = 0.4 | 804.97 | 1.959
318.15 K, x2 = 0.5 | 796.19 | 1.957
318.15 K, x2 = 0.6 | 787.68 | 1.959
318.15 K, x2 = 0.7 | 779.43 | 1.967
318.15 K, x2 = 0.7999 | 771.42 | 1.981
318.15 K, x2 = 0.9 | 763.64 | 2.003
323.15 K, x2 = 0 | 838.7 | 1.846
323.15 K, x2 = 0.1 | 828.91 | 1.832
323.15 K, x2 = 0.2 | 819.45 | 1.813
323.15 K, x2 = 0.3 | 810.22 | 1.801
323.15 K, x2 = 0.4 | 801.25 | 1.795
323.15 K, x2 = 0.5 | 792.52 | 1.793
323.15 K, x2 = 0.6 | 784.05 | 1.795
323.15 K, x2 = 0.7 | 775.84 | 1.8
323.15 K, x2 = 0.7999 | 767.88 | 1.813
323.15 K, x2 = 0.9 | 760.14 | 1.833

CCCCCCCC(=O)OCC [ethyl octanoate] + CCCCCCCCCCCCCCCC
Details | mass density [kg/m3] | viscosity [mPa·s]
298.15 K, x2 = 0 | 862.64 | 1.428
298.15 K, x2 = 0.1 | 848.72 | 1.539
298.15 K, x2 = 0.2 | 836.2 | 1.651
298.15 K, x2 = 0.3 | 824.94 | 1.776
298.15 K, x2 = 0.4 | 814.77 | 1.916
298.15 K, x2 = 0.4999 | 805.52 | 2.065
298.15 K, x2 = 0.6 | 797.09 | 2.229
298.15 K, x2 = 0.7 | 789.38 | 2.408
298.15 K, x2 = 0.8 | 782.33 | 2.608
298.15 K, x2 = 0.9 | 775.88 | 2.84
303.15 K, x2 = 0 | 858.34 | 1.313
303.15 K, x2 = 0.1 | 844.55 | 1.407
303.15 K, x2 = 0.2 | 832.14 | 1.513
303.15 K, x2 = 0.3 | 820.97 | 1.623
303.15 K, x2 = 0.4 | 810.9 | 1.744
303.15 K, x2 = 0.4999 | 801.74 | 1.875
303.15 K, x2 = 0.6 | 793.39 | 2.019
303.15 K, x2 = 0.7 | 785.75 | 2.175
303.15 K, x2 = 0.8 | 778.76 | 2.348
303.15 K, x2 = 0.9 | 772.36 | 2.543
308.15 K, x2 = 0 | 854.04 | 1.211
308.15 K, x2 = 0.1 | 840.37 | 1.296
308.15 K, x2 = 0.2 | 828.07 | 1.387
308.15 K, x2 = 0.3 | 817.01 | 1.49
308.15 K, x2 = 0.4 | 807.03 | 1.596
308.15 K, x2 = 0.4999 | 797.95 | 1.712
308.15 K, x2 = 0.6 | 789.68 | 1.837
308.15 K, x2 = 0.7 | 782.11 | 1.974
308.15 K, x2 = 0.8 | 775.18 | 2.124
308.15 K, x2 = 0.9 | 768.84 | 2.291
313.15 K, x2 = 0 | 849.72 | 1.121
313.15 K, x2 = 0.1 | 836.18 | 1.197
313.15 K, x2 = 0.2 | 824 | 1.279
313.15 K, x2 = 0.3 | 813.04 | 1.371
313.15 K, x2 = 0.4 | 803.16 | 1.467
313.15 K, x2 = 0.4999 | 794.16 | 1.57
313.15 K, x2 = 0.6 | 785.97 | 1.68
313.15 K, x2 = 0.7 | 778.47 | 1.801
313.15 K, x2 = 0.8 | 771.61 | 1.933
313.15 K, x2 = 0.9 | 765.33 | 2.083
318.15 K, x2 = 0 | 845.39 | 1.042
318.15 K, x2 = 0.1 | 831.98 | 1.11
318.15 K, x2 = 0.2 | 819.92 | 1.185
318.15 K, x2 = 0.3 | 809.06 | 1.267
318.15 K, x2 = 0.4 | 799.27 | 1.351
318.15 K, x2 = 0.4999 | 790.37 | 1.444
318.15 K, x2 = 0.6 | 782.25 | 1.543
318.15 K, x2 = 0.7 | 774.83 | 1.65
318.15 K, x2 = 0.8 | 768.04 | 1.766
318.15 K, x2 = 0.9 | 761.81 | 1.897
323.15 K, x2 = 0 | 841.06 | 0.971
323.15 K, x2 = 0.1 | 827.77 | 1.034
323.15 K, x2 = 0.2 | 815.83 | 1.101
323.15 K, x2 = 0.3 | 805.08 | 1.172
323.15 K, x2 = 0.4 | 795.39 | 1.251
323.15 K, x2 = 0.4999 | 786.56 | 1.334
323.15 K, x2 = 0.6 | 778.53 | 1.422
323.15 K, x2 = 0.7 | 771.18 | 1.517
323.15 K, x2 = 0.8 | 764.46 | 1.62
323.15 K, x2 = 0.9 | 758.3 | 1.736
